Test results published in PubChem BioAssay (NCI).
Several values for one entry are separate records, joined by “and”; a condition that tells them apart may be missing. Equal entries are not always repeated.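 1) Cells in 96-well plates. 2) Compound, 48 h, 5 concentrations. 3) Linear interpolation between surrounding doses. 4) Unreached endpoint = highest concentration. GI50 is the concentration that inhibits growth by half. At the TGI there is no net growth.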

What was measured:
Test in all cases: growth of human tumour cells (NCI), 48 h
SF-268 CNS = tested on: SF-268 CNS
SF-539 CNS = tested on: SF-539 CNS
LOX IMVI melanoma = tested on: LOX IMVI melanoma
ACHN renal = tested on: ACHN renal
SK-OV-3 ovarian = tested on: SK-OV-3 ovarian
CAKI-1 renal = tested on: CAKI-1 renal
SNB-19 CNS = tested on: SNB-19 CNS
HS 578T breast = tested on: HS 578T breast
UACC-257 melanoma = tested on: UACC-257 melanoma
RXF 393 renal = tested on: RXF 393 renal

Compound | GI50 (SF-268 CNS) | TGI (SF-268 CNS) | GI50 (SF-539 CNS) | TGI (SF-539 CNS) | GI50 (LOX IMVI melanoma) | TGI (LOX IMVI melanoma) | GI50 (ACHN renal) | TGI (ACHN renal) | GI50 (SK-OV-3 ovarian) | TGI (SK-OV-3 ovarian) | GI50 (CAKI-1 renal) | TGI (CAKI-1 renal) | GI50 (SNB-19 CNS) | TGI (SNB-19 CNS) | GI50 (HS 578T breast) | TGI (HS 578T breast) | GI50 (UACC-257 melanoma) | TGI (UACC-257 melanoma) | GI50 (RXF 393 renal) | TGI (RXF 393 renal)
C/C1=C\CC[C@@](C)(O)[C@H]2C[C@H](CC/C(C)=C/CC1)C1(CC1)C(=O)O2 | 19.3 µM | 41.2 µM | 17.1 µM | 33.5 µM | 13.6 µM | 28.6 µM | 16.8 µM | 31.3 µM | > 100 µM | > 100 µM | 20.7 µM | 43.3 µM | 85.6 µM | > 100 µM | 29.9 µM | 96.5 µM | 19.4 µM | 67.2 µM | 18.4 µM | 42.8 µM
COC(=O)Nc1nc2c(OC)c(OC)c(OC)cc2[nH]1 | 59.2 µM | > 100 µM | 18.6 µM | 73.3 µM | 49 µM | > 100 µM | 81.9 µM | > 100 µM | 30.8 µM | > 100 µM | 15.7 µM | > 100 µM | 45.7 µM | > 100 µM | 30 µM | > 92.3 µM | > 100 µM | > 100 µM | 18.4 µM | 66 µM
CC(=O)OCCC/C(=C\c1ccc2ccccc2c1)[N+](=O)[O-] | 1.67 µM | 3.43 µM | 1.76 µM | 3.32 µM | – | – | 1.89 µM | 3.68 µM | 5.26 µM | 18.5 µM | 1.5 µM | 3.28 µM | 1.77 µM | 3.28 µM | 1.09 µM | 5.19 µM | 1.81 µM | 3.54 µM | 1.94 µM | 4.1 µM
O=C1C2C(C(=O)[N]1[Hg][c]1ccccc1)C1(Cl)C(Cl)=C(Cl)C2(Cl)C1(Cl)Cl (configuration not stated) | 1.64 µM | 3.71 µM | – | – | 1.02 µM | 2.39 µM | 1.69 µM | 3.07 µM | 1.87 µM | 5.17 µM | 1.67 µM | 4.99 µM | 1.54 µM | 2.99 µM | 0.771 µM | > 100 µM | 1.22 µM | 2.52 µM | 0.423 µM | 1.59 µM
CC(C)(C)c1ccc(C(=O)N/N=C/c2ccc(O)cc2O)cc1 | 0.358 µM | 8.19 µM | 0.452 µM | 2.98 µM | 0.224 µM | 0.975 µM | 0.334 µM | 7.74 µM | 0.589 µM | 14.7 µM | 0.342 µM | 1.99 µM | 0.825 µM | 17.9 µM | 2.42 µM | 27.3 µM | 0.557 µM | 21.4 µM | 1.61 µM | 12.2 µM
NC(=O)Nc1ccc2ncnc(Nc3ccc(Cl)cc3)c2c1 | 21.7 µM | > 100 µM | 30.7 µM | > 100 µM | 18.1 µM | 57.7 µM | 1.49 µM | 45.3 µM | 4.5 µM | 34.1 µM | 1.6 µM | 42.2 µM | 14.1 µM | > 100 µM | 17 µM | 66.4 µM | 22 µM | 66 µM | 17 µM | 83.6 µM
NC1=CC(=O)C(=O)c2cccnc21 | 4.81 µM | 18 µM | 7.59 µM | 20.3 µM | 1.7 µM | 4.38 µM | 6.73 µM | 19.9 µM | 18.8 µM | 41.2 µM | 8.45 µM | 31.2 µM | 5.86 µM | 21.6 µM | 5.16 µM | 55.1 µM | 2.23 µM | 6.7 µM | 14.2 µM | 27.2 µM
OC(COc1ccc(Cl)cc1Cl)CN1CCCC1 (configuration not stated) | – | > 100 µM | – | > 100 µM | – | > 100 µM | – | > 100 µM | – | > 100 µM | – | > 100 µM | – | > 100 µM | – | > 100 µM | – | 60.2 µM | – | > 100 µM
CC12C=CC(C)(O1)C1C2c2ccccc2S1(=O)=O (configuration not stated) | 68 µM | > 100 µM | 85.4 µM | > 100 µM | 46.6 µM | > 100 µM | 69.2 µM | > 100 µM | > 100 µM | > 100 µM | 82 µM | > 100 µM | > 100 µM | > 100 µM | 46.2 µM | > 100 µM | 41.7 µM | > 100 µM | 0.637 µM | 36.9 µM
BrP(NC1CCCCCC1)(c1ccccc1)(c1ccccc1)c1ccccc1 | – | 11.1 µM | – | 34.4 µM | – | 10.4 µM | – | 9.12 µM | – | – | – | 13 µM | – | 16.8 µM | – | 12.4 µM | – | 6.3 µM | – | 5.57 µM
CCOC(=O)Nc1nc2c(F)c(F)c(F)cc2s1 | 43.8 µM | > 100 µM | 28.7 µM | 98.2 µM | > 100 µM | > 100 µM | > 100 µM | > 100 µM | 45.2 µM | > 100 µM | > 100 µM | > 100 µM | > 100 µM | > 100 µM | 27.4 µM | > 100 µM | > 100 µM | > 100 µM | 29.6 µM | > 100 µM
COc1cc(Nc2ncc3c(n2)-c2ccc(Cl)cc2C(c2c(F)cccc2OC)=NC3)ccc1C(=O)O | 9.51 µM | 92.8 µM | 0.503 µM | 20 µM | 0.91 µM | 21.3 µM | 2.34 µM | 55.1 µM | 10.6 µM | 44 µM | 1.66 µM | 29.3 µM | 13.3 µM | > 100 µM | 3.3 µM | > 71.3 µM | 18.2 µM | > 92.5 µM | 1.59 µM | 13.1 µM
COc1cc2c(cc1OCCCCC(=O)Nc1ccc(-c3nc4ccccc4s3)cc1)N=C[C@@H]1CCCN1C2=O | 2.04 µM | 5.66 µM | 1.59 µM | 3.38 µM | 1.57 µM | 2.91 µM | 3 µM | 8.53 µM | 4.48 µM | 14.5 µM | 2.2 µM | 5.96 µM | 2.68 µM | 11.2 µM | 2.75 µM | 5.86 µM | 1.73 µM | 3.81 µM | 1.61 µM | 3.05 µM
COc1ccc(N2CCN(CC(=O)N3CCN(c4nnc(-c5ccccc5)c(-c5ccccc5)n4)CC3)CC2)cc1 | 9.16 µM | > 100 µM | 7.71 µM | > 81.9 µM | 11.6 µM | > 100 µM | 7.94 µM | > 100 µM | > 27.9 µM | > 100 µM | 11.6 µM | > 100 µM | > 33.6 µM | > 100 µM | 9.46 µM | > 100 µM | 27.1 µM | > 90.6 µM | 7.88 µM | > 61.2 µM
COC(=O)c1[nH]nc(-c2ccccc2)c1N1CCCCC1 | 20.8 µM | 53.5 µM | 20.6 µM | 57.4 µM | 42 µM | > 100 µM | 25.6 µM | 62.1 µM | 36.4 µM | > 100 µM | 62.4 µM | 87.8 µM | 36.2 µM | > 100 µM | 22.4 µM | 64.7 µM | 39.7 µM | > 100 µM | 20.7 µM | 54.5 µM
Cc1ccc(C(=O)Nc2ccc(CN3CCN(C)CC3)c(C(F)(F)F)c2)cc1C#Cc1cncc2ncccc12 | 0.408 µM | 4.33 µM | 0.42 µM | 1.55 µM | 0.0978 µM | 0.554 µM | 0.162 µM | 0.999 µM | 0.553 µM | 6.63 µM | 0.222 µM | 2.52 µM | 1.29 µM | 2.62 µM | 0.232 µM | 1.08 µM | 0.402 µM | 4.42 µM | 0.29 µM | 1.05 µM
CC(=O)OC1CCC2(C)C(CCC3C2CCC2(C)C(C4=CC(=O)OC4)CCC32)C1 (configuration not stated) | 2.38 µM | 10.1 µM | 2.68 µM | 9.15 µM | 0.42 µM | > 100 µM | 12.3 µM | 38.9 µM | 19.9 µM | 49 µM | 11.2 µM | 33.1 µM | 8.49 µM | 38.4 µM | 4.68 µM | 32.1 µM | – | – | 8.73 µM | 28.7 µM
Cc1cc(N(CCCNc2ccnc3cc(Cl)ccc23)Cc2cccs2)nc(Cl)n1 | 10.5 µM | 29.7 µM | 7.02 µM | 23.1 µM | 2.79 µM | 11.7 µM | 5.12 µM | 19.7 µM | 7.05 µM | 22.1 µM | – | – | 7.58 µM | 25.4 µM | 9.29 µM | 41.5 µM | 3.04 µM | 11.1 µM | 4.46 µM | 21.7 µM
CC[C@](O)(C(=O)O)c1cc2n(c(=O)c1CO)Cc1cc3ccccc3nc1-2 | – | – | < 0.0025 µM | – | 0.00507 µM and 0.0264 µM | 0.307 µM and 0.686 µM and 0.652 µM | – | 0.0211 µM | 0.0283 µM and 0.0176 µM | – | < 0.0025 µM | – | 0.00337 µM and 0.02 µM | – | 1.48 µM | 25 µM and 13.7 µM | 0.0236 µM and 0.0374 µM and 0.0873 µM | 0.278 µM and 0.953 µM and 0.582 µM | 0.0278 µM and < 0.0225 µM | 1.1 µM and 0.476 µM and 0.15 µM
COc1ccc(-c2nnc3n(C)c(=O)c4ccccc4n23)cc1O | 5.29 µM | > 100 µM | 0.596 µM | 6.68 µM | 1.25 µM | > 100 µM | 1.15 µM | > 100 µM | 1.12 µM | 32.9 µM | 1.06 µM | > 100 µM | 0.862 µM | > 64.9 µM | 0.964 µM | 35.9 µM | – | – | 0.758 µM | 6.21 µM
